# Entries after “also recorded” stand apart in the source; their conditions may differ.
# Tests used:
# IRAK1 = IRAK1 (Homo sapiens, UniProt P51617); conditions: cited from earlier work; for ability to inhibit IRAK1: recently reported (ref 38), in vitro and in vivo
# p-IRAK1 (T209) = biological target: T1, p-IRAK1 (T209) (Homo sapiens, UniProt P51617); assay: Western blot of p-IRAK1 in immunoprecipitated IRAK1; assay type: cell-based; conditions: for induction of p-IRAK1 by chemotherapeutic agent: MDA231 (also SUM159) cells, PTX 5 nM, ADR 2 μM, Cisplatin 5 μM, up to 48 hours; for IRAK1 signaling activated by chemotherapeutic agents: discussion statement
# T1 construct: The whole cell lysate were extracted with the NE-PER kit (Pierce Biotechnology) and subjected to immunoprecipitation using 2 μg total-IRAK1 antibody; endogenous in cells; host or cells: TNBC cell lines (BT549, MB436, MB468, MDA231, MDA231-LM2, SUM159 and paclitaxel-resistant sublines)
# Method: (§1) Western Blotting was performed as described previously (8). IRAK1 (Cat no: #4359), IRAK4 (Cat no.: 4363), cleaved PARP (Cat no.: #9541), p38 MAPK (Cat no.: #9212), phospho-p38 MAPK (T180/Y182) (Cat no.: #9211), phospho-NF-KappaB p65 (S536) (Cat no. #3031) were purchased from Cell Signaling (Danvers, Mass.). Phospho-IRAK1 (T209) antibody was purchased from Assay Biotech (Sunnyvale, Calif., Cat no.: A1074) and phospho-IRAK1 (S376) antibody from Genetex (Irvine, Calif., Cat no.: GTX50994). MCL-1 antibody was purchased from Santa Cruz Biotechnology (Santa Cruz, Calif., Cat no.: sc-819). Actin was purchased from Sigma-Aldrich (St Louis, Mo., Cat no.: A5441). Detection of bands was performed with the ChemiDoc™ MP Imaging Systems (Bio-Rad, Hercules, Calif.) and bands were subjected to further densitometric analysis with Image Lab software (Version 4.1, Bio-rad, Hercules, Calif.).
# Co-IP was performed as described previously (9). The whole cell lysate were extracted with the NE-PER kit (Pierce Biotechnology) and subjected to immunoprecipitation using 2 μg total-IRAK1 antibody (Santa Cruz Biotech, Santa Cruz, Calif., Cat no.: sc-7883). The precipitated protein complex was captured using protein A-Agarose beads (Roche) and extensively washed with the washing buffer (50 mM Tris-HCl, 150 mM NaCl, 0.1% triton). The precipitated proteins were dissolved in SDS sample buffer along with 3 mM DTT, and subjected to immunoblotting analysis. Phospho-IRAK1 (T209) (Assay Biotechnology, Sunnyvale, Calif., Cat no.: A1074) was used for detection.
# MDA231-PR cells = assay: Cell viability IC50 curves, sensitivity of paclitaxel-resistant cells to agents; assay type: cell-based; conditions: for sensitivity of paclitaxel-resistant cells to agent: paclitaxel-treated/resistant cells over-expressing p-IRAK1; for shift of the IC50 curve: MDA231-PR versus parental MDA-MB-231
# Description: (§2) FIG. 17. (a). IC50 curves showing cell viability after treatment with paclitaxel (PTX), vincristine (VCR), gemcitabine, doxorubicin (ADR), cisplatin, 5-fluorouracil (5-FU) and pacritinib in parental and pacitaxel-treated MDA-MB-231 (MDA231-PR) cells. (b). Graphical representation of relative sensitivities. (c).
# (§3) For cell proliferation assay, the optimal cell seeding was first determined empirically for all cell lines by examining the growth of a wide range of seeding densities in a 96-well format to identify conditions that permitted proliferation for 7 days. Cells were then plated at the optimal seeding density 24 h before siRNA or drug treatment in triplicate. Plates were incubated for 7 days at 37° C. in 5% CO2. Cells were then lysed with CellTiter-Glo (CTG) (Promega, Madison, Wis.) and chemiluminescent signal was detected with a microplate reader on Day 0, 1, 3, 5 and 7. In addition, an untreated plate of cells was harvested at the time of drug or siRNA addition (T0) to quantify the starting number of cells. CTG values obtained after the 7 day treatment were expressed as percentages of the T0 value and plotted against time of treatment.
# [1] = system: parental MDA-MB-231 cells; assay: Cell viability IC50 curves, sensitivity of parental cells to agents; assay type: cell-based; conditions: parental MDA231
# Description: as §2, §3
# [2] = system: SUM159-PR and MDA231-PR cells; assay: Apoptosis by FACS analysis of Sub-G1 cells; assay type: cell-based; conditions: for sensitization of Paclitaxel for apoptosis: Paclitaxel-resistant cells (SUM159-PR, MDA231-PR), inhibitor together with Paclitaxel
# Method: Cell cycle analysis was done by DNA content quantification to quantify the sub-G1 population which is reflective of the extent of cell death. Briefly, the cells were fixed with 70% ethanol and stained with propidium iodide (50 μg/ml) staining. The stained cells were analyzed by FACScalibur (BD Bioscience) and quantified by using CellQuest software (BD bioscience).
# [3] = system: p38-MCL-1 signaling in SUM159-PR cells; assay: Western blot of p-p38, MCL-1 and cleaved PARP; assay type: cell-based; conditions: inhibitor with Paclitaxel
# Method: as §1
# [4] = system: BT549, MB436, MB468, MDA231 and MDA231-LM2 cells; assay: Mammosphere formation assay; assay type: cell-based; conditions: Ginsenosides CK and Rb1
# Method: Active growing cells were treated with 0.05% trypsin for 10 minutes then passed through […] cell strainer to achieve single cell suspension. Cells were plated (MDA231: 1×10^4; MB436: 3×10^4; MB468: 4×10^4 cells/well, BT549: 3×10^4, MDA231-LM2: 3×10^4) seeded in 6-well ultra-low attachment plates (Corning, Corning, N.Y., cat: CLS3471) in Mammocult medium (Stem cell Technologies, Vancouver, BC, Canada), supplemented with fresh hydrocortisone (0.51 μg/ml) and heparin (1:500). Tumorspheres were cultured for 7 days prior to being counted and photographed. Imaging and quantification were done using GelCount™ apparatus and associated software (Oxford Optronix, Abingdon, UK). For serial passages of tumorsphere formation assay, the spheres were collected by gentle centrifugation, dissociated to single cells for passaging tumorspheres every 14 days and counted. Tumorspheres were photographed and quantified 7-12 days later using a GelCount Colony Counter after staining with INT.
# [5] = system: MDA231 and SUM159 parental and Paclitaxel-resistant sublines (PR); assay: Cell viability of parental and Paclitaxel-resistant sublines, combination treatment; assay type: cell-based; conditions: MDA231-PR cells, in combination with PTX
# Method: as §3
# Chain of IRAK1 (P51617 whole entry, species assumed): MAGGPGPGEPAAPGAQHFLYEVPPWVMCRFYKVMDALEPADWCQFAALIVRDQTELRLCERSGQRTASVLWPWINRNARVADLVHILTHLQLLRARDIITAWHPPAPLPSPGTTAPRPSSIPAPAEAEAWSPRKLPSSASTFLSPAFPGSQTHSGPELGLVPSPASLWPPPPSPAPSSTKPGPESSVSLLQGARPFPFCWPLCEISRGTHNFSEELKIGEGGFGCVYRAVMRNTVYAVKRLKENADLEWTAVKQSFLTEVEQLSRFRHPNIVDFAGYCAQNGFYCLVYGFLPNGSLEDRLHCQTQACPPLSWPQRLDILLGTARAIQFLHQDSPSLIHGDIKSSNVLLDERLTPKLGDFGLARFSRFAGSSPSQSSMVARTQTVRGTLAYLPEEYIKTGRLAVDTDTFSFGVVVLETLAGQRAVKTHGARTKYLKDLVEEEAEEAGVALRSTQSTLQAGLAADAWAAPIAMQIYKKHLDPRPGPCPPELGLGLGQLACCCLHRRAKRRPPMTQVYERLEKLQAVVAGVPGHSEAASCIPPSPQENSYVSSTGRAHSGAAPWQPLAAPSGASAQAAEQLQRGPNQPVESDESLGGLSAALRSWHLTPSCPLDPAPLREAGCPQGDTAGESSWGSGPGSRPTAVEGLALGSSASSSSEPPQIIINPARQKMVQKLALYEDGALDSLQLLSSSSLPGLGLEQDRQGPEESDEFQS
# T1 sequence (P51617 whole entry): as the sequence (P51617 whole entry, species assumed) above
structure (smiles),measurement,setting,value
"CC(C)=CCC[C@](C)(O[C@@H]1O[C@H](CO[C@@H]2O[C@H](CO)[C@@H](O)[C@H](O)[C@H]2O)[C@@H](O)[C@H](O)[C@H]1O)[C@H]1CC[C@]2(C)[C@@H]1[C@H](O)C[C@@H]1[C@@]3(C)CC[C@H](O[C@@H]4O[C@H](CO)[C@@H](O)[C@H](O)[C@H]4O[C@@H]4O[C@H](CO)[C@@H](O)[C@H](O)[C@H]4O)C(C)(C)[C@@H]3CC[C@]12C [Rb1, Ginsenoside Rb1]",ability to inhibit IRAK1,IRAK1,ability to inhibit IRAK1
N.N.[Cl][Pt][Cl] [cisplatin],induction of p-IRAK1 by chemotherapeutic agent,p-IRAK1 (T209),not seen
same,sensitivity of paclitaxel-resistant cells to agent,MDA231-PR cells,remained sensitive; also recorded: remained susceptible
O=c1[nH]cc(F)c(=O)[nH]1 [5-fluorouracil],sensitivity of paclitaxel-resistant cells to agent,MDA231-PR cells,poor
same,response of parental cells to agent,[1],poor
"C[C@@H]1CN(Cc2ccc(F)cc2)[C@@H](C)CN1C(=O)c1cc2c(C(=O)C(=O)N(C)C)cn(C)c2cc1Cl [p38 inhibitor, SCIO 469]",sensitization of Paclitaxel for apoptosis,[2],able to phenocopy IRAK-inh to sensitize Paclitaxel-induced apoptosis
same,PARP cleavage,[3],increased PARP cleavage
same,p-p38 and MCL-1 expression,[3],decrease
"CC(C)=CCC[C@](C)(O[C@@H]1O[C@H](CO)[C@@H](O)[C@H](O)[C@H]1O)[C@H]1CC[C@]2(C)[C@@H]1[C@H](O)C[C@@H]1[C@@]3(C)CC[C@H](O)C(C)(C)[C@@H]3CC[C@]12C [CK, Compound K]",p-IRAK1 in MDA231-LM2 cells,p-IRAK1 (T209); CK 25 μM,inhibit p-IRAK1
same,MDA231-LM2 mammosphere growth,[4],abolish; also recorded: inhibit TNBC metastatic growth
same,effect on Paclitaxel resistance (cell viability and apoptosis),[5],combat Paclitaxel resistance; also recorded: combat chemoresistance
same,ability to inhibit IRAK1,IRAK1,ability to inhibit IRAK1
"NS(=O)(=O)c1nn2cc(-c3ccccc3)nc2s1 [JNK inhibitor, AEG 3482]",sensitization of Paclitaxel for apoptosis,[2],not evident
C1=C/COCc2cc(ccc2OCCN2CCCC2)Nc2nccc(n2)-c2cccc(c2)COC/1 [pacritinib],effect of treatment on paclitaxel-resistant MDA-MB-231 cells,[2]; compared with IRAK-inh,effects similar to those seen with IRAK-inh
same,sensitivity of paclitaxel-resistant cells to agent,MDA231-PR cells,sensitive; also recorded: remained susceptible
same,IRAK1-inhibitory activity,IRAK1; through communication with CTI BioPharma,IRAK1-inhibitory activity
O=C(Nc1cc(Cl)cc2c1[nH]c1cnccc12)c1cccnc1 [PS1145],sensitization of Paclitaxel for apoptosis,[2],failed to sensitize
"Cc1ccc(S(=O)(=O)/C=C/C#N)cc1 [Bay 117082, BAY-11-7082]",sensitization of Paclitaxel for apoptosis,[2],failed to sensitize
"COc1cccc2c1C(=O)c1c(O)c3c(c(O)c1C2=O)C[C@@](O)(C(=O)CO)C[C@@H]3O[C@H]1C[C@H](N)[C@H](O)[C@H](C)O1 [doxorubicin, Doxorubicin]",induction of p-IRAK1 by chemotherapeutic agent,p-IRAK1 (T209),not seen
same,IRAK1 signaling activated by chemotherapeutic agents,p-IRAK1 (T209),activated
same,shift of the IC50 curve,MDA231-PR cells,marked right shift
Nc1ccn([C@@H]2O[C@H](CO)[C@@H](O)C2(F)F)c(=O)n1 [gemcitabine],sensitivity of paclitaxel-resistant cells to agent,MDA231-PR cells,remained sensitive; also recorded: remained susceptible
CC[C@]1(O)C[C@H]2CN(CCc3c([nH]c4ccccc34)[C@@](C(=O)OC)(c3cc4c(cc3OC)N(C=O)[C@H]3[C@@](O)(C(=O)OC)[C@H](OC(C)=O)[C@]5(CC)C=CCN6CC[C@]43[C@@H]65)C2)C1 [Vincristine],IRAK1 signaling activated by chemotherapeutic agents,p-IRAK1 (T209),activated
same,shift of the IC50 curve,MDA231-PR cells,marked right shift
same,sensitivity of paclitaxel-resistant cells to agent,MDA231-PR cells,resistant

# Source: US10881677B2, “Composition for modulating IRAK1” (Agency for Science, Technology and Research, priority 2015, dated 2021)
